In patent US10023593B2, “ALK kinase inhibitor, and preparation method and uses thereof” (BEIJING PEARL BIOTECHNOLOGY LIMITED LIABILITY COMPANY, priority 2014, dated 2018):

Experiments:
[1] = molecular target: T1, Wild Type ALK kinase (Homo sapiens, UniProt Q9UM73); assay: HTRF KinEASE-TK assay, inhibitory activity on wild type ALK kinase; assay type: biochemical; conditions: wild type ALK 1 ng/μl, substrate 1 μM, 30° C. 35 minutes, read-out: Inhibition on ALK kinases (wildtype), IC50
T1 construct: purchased Sino-US Crown Bioscience, Inc. batch number ALK 20110607
T1 sequence (Q9UM73 19-1620): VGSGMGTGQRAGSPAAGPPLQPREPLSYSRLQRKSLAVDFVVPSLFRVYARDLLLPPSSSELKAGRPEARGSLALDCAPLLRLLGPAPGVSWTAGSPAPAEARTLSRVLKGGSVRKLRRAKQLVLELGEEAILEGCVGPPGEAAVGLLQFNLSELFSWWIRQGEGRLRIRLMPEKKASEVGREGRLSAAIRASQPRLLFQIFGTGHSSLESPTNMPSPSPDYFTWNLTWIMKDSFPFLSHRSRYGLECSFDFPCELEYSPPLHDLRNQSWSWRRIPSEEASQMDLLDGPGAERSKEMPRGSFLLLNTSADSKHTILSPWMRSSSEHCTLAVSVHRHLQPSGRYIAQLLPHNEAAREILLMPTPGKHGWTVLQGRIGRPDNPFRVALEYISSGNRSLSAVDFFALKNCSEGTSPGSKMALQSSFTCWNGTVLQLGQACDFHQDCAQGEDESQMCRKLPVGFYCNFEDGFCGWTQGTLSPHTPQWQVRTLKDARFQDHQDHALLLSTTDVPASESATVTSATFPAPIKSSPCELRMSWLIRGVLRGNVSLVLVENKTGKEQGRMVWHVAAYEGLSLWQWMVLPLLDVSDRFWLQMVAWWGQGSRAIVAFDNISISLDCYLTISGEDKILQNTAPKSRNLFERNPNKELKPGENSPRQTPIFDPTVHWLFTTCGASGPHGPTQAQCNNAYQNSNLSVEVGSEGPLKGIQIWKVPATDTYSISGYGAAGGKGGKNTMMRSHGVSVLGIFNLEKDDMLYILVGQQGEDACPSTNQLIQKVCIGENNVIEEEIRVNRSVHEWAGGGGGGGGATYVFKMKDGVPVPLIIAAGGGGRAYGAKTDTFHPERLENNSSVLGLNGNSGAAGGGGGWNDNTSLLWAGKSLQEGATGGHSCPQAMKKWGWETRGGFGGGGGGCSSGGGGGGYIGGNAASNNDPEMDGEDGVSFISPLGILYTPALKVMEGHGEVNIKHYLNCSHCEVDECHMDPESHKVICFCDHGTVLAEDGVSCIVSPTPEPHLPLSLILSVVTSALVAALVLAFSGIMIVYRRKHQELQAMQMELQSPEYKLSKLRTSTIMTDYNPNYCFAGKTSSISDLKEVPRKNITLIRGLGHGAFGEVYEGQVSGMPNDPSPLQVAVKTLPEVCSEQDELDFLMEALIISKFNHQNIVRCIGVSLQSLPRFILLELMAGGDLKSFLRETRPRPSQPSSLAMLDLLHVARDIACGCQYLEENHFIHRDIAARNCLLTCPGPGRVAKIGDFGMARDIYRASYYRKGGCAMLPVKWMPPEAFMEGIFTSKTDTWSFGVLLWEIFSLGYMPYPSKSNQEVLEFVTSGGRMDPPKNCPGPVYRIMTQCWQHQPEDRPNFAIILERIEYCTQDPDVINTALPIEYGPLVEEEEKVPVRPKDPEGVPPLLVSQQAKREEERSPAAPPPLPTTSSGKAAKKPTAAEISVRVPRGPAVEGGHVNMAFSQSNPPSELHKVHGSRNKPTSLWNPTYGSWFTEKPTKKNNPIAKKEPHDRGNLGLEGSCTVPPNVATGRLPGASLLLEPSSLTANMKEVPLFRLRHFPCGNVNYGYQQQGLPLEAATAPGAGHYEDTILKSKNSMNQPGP
Procedure, shortened: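 ALK kinase at 1 ng/μl and substrate at 1 μM were reacted with compound (1% DMSO) in buffer with 5 mM MgCl2 and 1 mM DTT for 35 min at 30 °C. HTRF detection used the 665/615 ratio, normalised to no-compound wells and to 10.4 μM LDK-378 wells. IC50 came from a concentration-response fit.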

[2] = tested on: Karpas-299 cell line; assay: CellTiter-Glo cell proliferation inhibition on Karpas-299 cell line; assay type: cell-based; conditions: Homo sapiens, 96 h, Karpas-299 cells, 5000 cells/well, 4 days drug treatment
Protocol: 4. Cell Proliferation Inhibitory Activities of the Compounds of the Present Invention on Karpas-299 Cell Line
? experimental method ? CellTiter-Glo® Luminescent Cell Viability Assay kit from Promega company was used to detect cell proliferation inhibitory activities of the compounds on Karpas-299 cell line.
? instrument ? Envision 2104 plate reader from PerKinElmer company; Vi-Cell XR cell counter from Beckman Counter company; MCO-18AIC CO2 incubator from SANYO company.
? experiment material ? CellTiter-Glo® Luminescent Cell Viability Assay Kit (Promega company, catalog No. G7573); Karpas-299 cell line (DSMZ, catalog No. ACC31); RPMI-1640 medium (HyClone company, catalog No. SH30809.01B); fetal bovine serum (FBS) (Gibco company, catalog No. 10099-141); PBS (HyClone company, catalog No. SH30256.01B); 96 wells cell culture plate (Corning company, catalog No. 3610); DMSO (AMRESCO company, catalog No. 0231); 96 wells plates (for diluting compounds) (CITOTEST company, catalog No. Ref36020096D);
? experimental condition ? Karpas-299 cells in exponential growth phase were collected and viable cells were counted by Vi-Cell XR cell counter. Cell suspension was adjusted to 62500 cells/ml with culture medium (RPMI-1640+10% FBS). 80 μl cell suspension was added into each well of 96 wells cell culture plate so that so that the final cell number of Karpas-299 cells was 5000 cells/well. The cells were cultivated in an incubator with an atmosphere of 37° C., 5% CO2 and 95% humidity for 2 hours and then each well was added with 20 μl compounds in RPMI-1640 medium solution (the final concentration of DMSO was 0.5%). 4 days after drug treatment, each well was added with 50 μl CellTiter-Glo solution which was previously thawed and equilibrated to room temperature, and mixed for 2 minutes with microplate shaker. After placing at room temperature for 10 minutes, luminescence reading value was measured with PerkinElmer Envision 2104 plate reader and the data was analyzed.
? tested samples ? Compounds of the examples.
Luminescence value of DMSO solvent control (Vvehicle control, which is the mean luminescence value from DMSO solvent control group)
Tested luminescence value (Vsample, which is the luminescence value from given concentration of compounds group) Inhibition rate (%)=(1−Vsample/Vvehicle control)×100
? data processing ? IC50 of compounds was calculated by using XLfit program in Excel.

IC50 [1] [nM]	IC50 [2] [nM]	SMILES
3	19	Cc1cc(Nc2ncc(Cl)c(Nc3cn(C4CC4)nc3S(=O)(=O)C(C)C)n2)c(OC2CC2)cc1C1CCNCC1 [Final product 27]
9	19	Cc1cc(Nc2ncc(Cl)c(Nc3cn(C)nc3S(=O)(=O)CC(C)C)n2)c(OC2CC2)cc1C1CCNCC1 [Final product 28]
4	35	CC(C)S(=O)(=O)c1nn(C)cc1Nc1nc(Nc2cc(C#N)c(C3CCNCC3)cc2OC2CC2)ncc1Cl [Final product 29]
7	25	CC(C)S(=O)(=O)c1nn(C)cc1Nc1nc(Nc2ccc(C3CCN(C)CC3)cc2OC(F)(F)F)ncc1Cl [Final product 30]
6	20	Cc1cc(Nc2ncc(Cl)c(Nc3cn(C)nc3S(=O)(=O)C(C)C)n2)c(OC(F)(F)F)cc1C1CCN(C)CC1 [Final product 31]
22	74	Cc1cc(Nc2ncc(Cl)c(Nc3cn(C)nc3S(=O)(=O)C(C)C)n2)c(C(F)(F)F)cc1C1CCN(C)CC1 [Final product 32]
10	62	Cc1cc(Nc2ncc(Cl)c(Nc3cn(C)nc3S(=O)(=O)C(C)C)n2)c(OC(CF)CF)cc1C1CCN(C)CC1 [Final product 34]
8	62	Cc1cc(Nc2ncc(Cl)c(Nc3cn(C)nc3S(=O)(=O)CC(C)C)n2)c(OC(C)C)cc1C1CN(C)C1 [Final product 36]
7	11	Cc1cc(Nc2ncc(Cl)c(Nc3cn(C)nc3S(=O)(=O)C(C)C)n2)c(OC(C)C)cc1C1CCN(C)C1 (stereo not drawn) [Final product 37]
11	22	CC(C)S(=O)(=O)c1nn(C2CC2)cc1Nc1nc(Nc2ccc(C3CCN(C)CC3)cc2OC(F)(F)F)ncc1Cl [Final product 38]
15	74	Cc1cc(Nc2ncc(Cl)c(Nc3cn(C)nc3S(=O)(=O)C(C)C)n2)c(OCC2CC2)cc1C1CCN(C)CC1 [Final product 39]
1	4	CC(C)S(=O)(=O)c1nn(C)cc1Nc1nc(Nc2ccc(C3CCN(C)C3)cc2OC2CC2)ncc1Cl (stereo not drawn) [Final product 41]
1	3	CC(C)S(=O)(=O)c1nn(C2CC2)cc1Nc1nc(Nc2ccc(C3CCN(C)CC3)cc2OC2CC2)ncc1Cl [Final product 42]
4	19	CC(C)S(=O)(=O)c1nn(C)cc1Nc1nc(Nc2cc(F)c(C3CCN(C)C3)cc2OC2CC2)ncc1Cl (stereo not drawn) [Final product 45]
2	41	CC(C)S(=O)(=O)c1nn(C2CC2)cc1Nc1nc(Nc2cc(Cl)c(C3CCN(C)CC3)cc2OC2CC2)ncc1Cl [Final product 48]
8	100	CC(C)S(=O)(=O)c1nn(C)cc1Nc1nc(Nc2cc(C#N)c(C3CCN(C)CC3)cc2OC2CC2)ncc1Cl [Final product 49]
5	11	Cc1cc(Nc2ncc(Cl)c(Nc3cn(C)nc3S(=O)(=O)C(C)C)n2)c(OC2CC2)cc1C1=CCN(C)CC1 [Final product 50]
9	18	Cc1cc(Nc2ncc(Cl)c(Nc3cn(C)nc3S(=O)(=O)C(C)C)n2)c(OC2CC2)cc1C1CCOCC1 [Final product 107]
3	16	Cc1cc(Nc2ncc(Cl)c(Nc3cn(C)nc3S(=O)(=O)C(C)C)n2)c(OC2CC2)cc1OC1CCN(C)CC1 [Final product 111]
5	9	CCN1CCC(c2cc(OC(C)C)c(Nc3ncc(Cl)c(Nc4cn(C)nc4S(=O)(=O)C(C)C)n3)cc2C)CC1 [Final product 118]
7	12	Cc1cc(Nc2ncc(Cl)c(Nc3cn(C)nc3S(=O)(=O)C(C)C)n2)c(OC(C)C)cc1C1CCN(C(C)C)CC1 [Final product 126]
5	30	Cc1cc(Nc2ncc(Cl)c(Nc3cn(C)nc3S(=O)(=O)CC(C)C)n2)c(OC2CC2)cc1C1CCN(C(C)C)CC1 [Final product 127]
3	3	CCOc1cc(C2CCN(CCO)CC2)c(C)cc1Nc1ncc(Cl)c(Nc2cn(C)nc2S(=O)(=O)C(C)C)n1 [Final product 135]

More lines, now with the values behind:

SMILES	IC50 [1] [nM]	IC50 [2] [nM]
Cc1cc(Nc2ncc(Cl)c(Nc3cn(C)nc3S(=O)(=O)C(C)C)n2)c(OC(C)C)cc1C1CNC1 [Final product 4]	4	60
Cc1cc(Nc2ncc(Cl)c(Nc3cn(C4CC4)nc3S(=O)(=O)C(C)C)n2)c(OC(C)C)cc1C1CCNCC1 [Final product 5]	6	37
Cc1cc(Nc2ncc(Cl)c(Nc3cn(C)nc3S(=O)(=O)CC(C)C)n2)c(OC(C)C)cc1C1CCNCC1 [Final product 6]	3	24
CCC(C)S(=O)(=O)c1nn(C)cc1Nc1nc(Nc2cc(C)c(C3CCNCC3)cc2OC(C)C)ncc1Cl (stereo not drawn) [Final product 7]	8	21
Cc1cc(Nc2ncc(Cl)c(Nc3cn(C)nc3S(=O)(=O)C(C)C)n2)c(OC(CF)CF)cc1C1CCNCC1 [Final product 8]	9	67
CC(C)S(=O)(=O)c1nn(C)cc1Nc1nc(Nc2ccc(C3CCNCC3)cc2OC(F)(F)F)ncc1Cl [Final product 9]	16	119
Cc1cc(Nc2ncc(Cl)c(Nc3cn(C)nc3S(=O)(=O)C(C)C)n2)c(OC(F)(F)F)cc1C1CCNCC1 [Final product 10]	7	20
Cc1cc(Nc2ncc(Cl)c(Nc3cn(C)nc3S(=O)(=O)C(C)C)n2)c(C(F)(F)F)cc1C1CCNCC1 [Final product 11]	22	61
Cc1cc(Nc2ncc(Cl)c(Nc3cn(C)nc3S(=O)(=O)C(C)C)n2)c(OCC2CC2)cc1C1CCNCC1 [Final product 12]	10	43
CC(C)S(=O)(=O)c1nn(C)cc1Nc1nc(Nc2ccc(C3CCNCC3)cc2OC2CC2)ncc1Cl [Final product 13]	3	7
CC(C)S(=O)(=O)c1nn(C)cc1Nc1nc(Nc2ccc(C3=CCNCC3)cc2OC2CC2)ncc1Cl [Final product 14]	4	19
CC(C)S(=O)(=O)c1nn(C)cc1Nc1nc(Nc2ccc(C3CCNC3)cc2OC2CC2)ncc1Cl (stereo not drawn) [Final product 15]	3	9
CC(C)S(=O)(=O)c1nn(C2CC2)cc1Nc1nc(Nc2ccc(C3CCNCC3)cc2OC2CC2)ncc1Cl [Final product 16]	4	8
CC(C)CS(=O)(=O)c1nn(C)cc1Nc1nc(Nc2ccc(C3CCNCC3)cc2OC2CC2)ncc1Cl [Final product 17]	11	36
CC(C)CS(=O)(=O)c1nn(C)cc1Nc1nc(Nc2ccc(C3CCNC3)cc2OC2CC2)ncc1Cl (stereo not drawn) [Final product 18]	2	28
CC(C)S(=O)(=O)c1nn(C)cc1Nc1nc(Nc2cc(F)c(C3CCNC3)cc2OC2CC2)ncc1Cl (stereo not drawn) [Final product 20]	9	56
CC(C)S(=O)(=O)c1nn(C2CC2)cc1Nc1nc(Nc2cc(F)c(C3CCNCC3)cc2OC2CC2)ncc1Cl [Final product 21]	1	10
CC(C)S(=O)(=O)c1nn(C)cc1Nc1nc(Nc2cc(Cl)c(C3CCNCC3)cc2OC2CC2)ncc1Cl [Final product 22]	2	14
CC(C)S(=O)(=O)c1nn(C2CC2)cc1Nc1nc(Nc2cc(Cl)c(C3CCNCC3)cc2OC2CC2)ncc1Cl [Final product 23]	4	38
Cc1cc(Nc2ncc(Cl)c(Nc3cn(C)nc3S(=O)(=O)C(C)C)n2)c(OC2CC2)cc1C1CCNCC1 [Final product 24]	2	9
Cc1cc(Nc2ncc(Cl)c(Nc3cn(C)nc3S(=O)(=O)C(C)C)n2)c(OC2CC2)cc1C1=CCNCC1 [Final product 25]	2	12
Cc1cc(Nc2ncc(Cl)c(Nc3cn(C)nc3S(=O)(=O)C(C)C)n2)c(OC2CC2)cc1C1CCNC1 (stereo not drawn) [Final product 26]	5	16
